According to ChEMBL document CHEMBL1148517, “A new class of selective, non-basic 5-HT2A receptor antagonists” (Bioorg Med Chem Lett, 2006):

Assays:
[1] = biological target: T1, 5-hydroxytryptamine receptor 2C (Homo sapiens, UniProt P28335); assay: Binding affinity to human 5HT2C
T1 sequence (P28335 whole entry): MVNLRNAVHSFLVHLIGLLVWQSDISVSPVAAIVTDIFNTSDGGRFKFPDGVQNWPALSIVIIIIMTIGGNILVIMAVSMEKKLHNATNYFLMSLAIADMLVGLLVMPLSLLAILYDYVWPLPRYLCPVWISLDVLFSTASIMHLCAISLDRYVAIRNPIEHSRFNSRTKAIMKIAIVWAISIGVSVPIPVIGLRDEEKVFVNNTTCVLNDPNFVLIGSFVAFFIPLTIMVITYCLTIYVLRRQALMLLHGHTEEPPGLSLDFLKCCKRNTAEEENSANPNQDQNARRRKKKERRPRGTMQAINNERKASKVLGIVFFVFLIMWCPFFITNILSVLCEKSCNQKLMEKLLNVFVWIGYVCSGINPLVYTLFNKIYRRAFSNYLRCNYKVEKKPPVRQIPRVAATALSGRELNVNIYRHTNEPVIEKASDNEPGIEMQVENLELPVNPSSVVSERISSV

[2] = biological target: Voltage-gated inwardly rectifying potassium channel KCNH2 (Homo sapiens, UniProt Q12809); assay: Binding affinity to human IKr
Chain of Voltage-gated inwardly rectifying potassium channel KCNH2 (Q12809 whole entry): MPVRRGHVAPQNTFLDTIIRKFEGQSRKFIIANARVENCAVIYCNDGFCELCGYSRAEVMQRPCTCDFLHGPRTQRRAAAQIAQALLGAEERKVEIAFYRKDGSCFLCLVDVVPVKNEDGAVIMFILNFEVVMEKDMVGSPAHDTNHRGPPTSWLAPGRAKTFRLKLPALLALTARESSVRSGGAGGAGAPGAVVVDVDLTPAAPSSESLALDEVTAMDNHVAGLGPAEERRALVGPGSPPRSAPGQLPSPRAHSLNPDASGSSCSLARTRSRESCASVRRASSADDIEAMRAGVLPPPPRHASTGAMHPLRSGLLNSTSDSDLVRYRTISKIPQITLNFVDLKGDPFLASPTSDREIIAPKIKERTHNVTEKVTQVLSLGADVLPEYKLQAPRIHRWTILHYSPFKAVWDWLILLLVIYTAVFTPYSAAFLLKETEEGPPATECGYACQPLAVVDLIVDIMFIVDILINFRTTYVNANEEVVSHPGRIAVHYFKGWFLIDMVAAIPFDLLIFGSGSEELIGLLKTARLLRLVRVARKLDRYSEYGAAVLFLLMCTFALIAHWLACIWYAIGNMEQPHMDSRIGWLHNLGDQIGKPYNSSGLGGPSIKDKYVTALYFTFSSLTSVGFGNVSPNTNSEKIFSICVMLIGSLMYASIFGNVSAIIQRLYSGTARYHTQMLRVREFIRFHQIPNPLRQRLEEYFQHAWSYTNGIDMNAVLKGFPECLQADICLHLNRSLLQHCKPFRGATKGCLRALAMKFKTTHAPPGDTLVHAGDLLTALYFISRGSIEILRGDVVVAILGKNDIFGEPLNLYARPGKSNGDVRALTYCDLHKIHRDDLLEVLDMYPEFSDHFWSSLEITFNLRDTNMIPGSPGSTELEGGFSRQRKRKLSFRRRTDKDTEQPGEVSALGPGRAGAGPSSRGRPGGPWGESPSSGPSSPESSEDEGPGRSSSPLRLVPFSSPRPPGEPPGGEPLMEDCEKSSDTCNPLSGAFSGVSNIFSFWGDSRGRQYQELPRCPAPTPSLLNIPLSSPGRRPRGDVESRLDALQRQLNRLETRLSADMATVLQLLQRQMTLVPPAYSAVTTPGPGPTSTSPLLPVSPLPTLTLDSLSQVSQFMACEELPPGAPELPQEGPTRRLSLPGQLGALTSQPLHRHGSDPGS

[3] = biological target: T2, 5-hydroxytryptamine receptor 2A (Homo sapiens, UniProt P28223); assay: Binding affinity to human 5HT2A
T2 sequence (P28223 whole entry): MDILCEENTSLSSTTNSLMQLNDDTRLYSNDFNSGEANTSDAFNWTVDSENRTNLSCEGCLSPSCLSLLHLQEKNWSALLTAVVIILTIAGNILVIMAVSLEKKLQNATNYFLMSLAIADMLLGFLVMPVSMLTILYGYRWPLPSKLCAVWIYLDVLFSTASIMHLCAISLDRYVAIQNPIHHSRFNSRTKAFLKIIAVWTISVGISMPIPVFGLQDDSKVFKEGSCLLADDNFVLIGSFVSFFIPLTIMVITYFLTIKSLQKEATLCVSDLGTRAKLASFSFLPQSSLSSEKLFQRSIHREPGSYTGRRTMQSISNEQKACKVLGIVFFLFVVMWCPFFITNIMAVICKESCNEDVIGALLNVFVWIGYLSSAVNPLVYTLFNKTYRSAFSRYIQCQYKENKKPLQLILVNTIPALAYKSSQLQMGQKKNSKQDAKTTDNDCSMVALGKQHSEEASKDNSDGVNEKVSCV

D(2) dopamine receptor = D(2) dopamine receptor (Homo sapiens, UniProt P14416); assay: Binding affinity to human D2 receptor
Chain of D(2) dopamine receptor (P14416 whole entry): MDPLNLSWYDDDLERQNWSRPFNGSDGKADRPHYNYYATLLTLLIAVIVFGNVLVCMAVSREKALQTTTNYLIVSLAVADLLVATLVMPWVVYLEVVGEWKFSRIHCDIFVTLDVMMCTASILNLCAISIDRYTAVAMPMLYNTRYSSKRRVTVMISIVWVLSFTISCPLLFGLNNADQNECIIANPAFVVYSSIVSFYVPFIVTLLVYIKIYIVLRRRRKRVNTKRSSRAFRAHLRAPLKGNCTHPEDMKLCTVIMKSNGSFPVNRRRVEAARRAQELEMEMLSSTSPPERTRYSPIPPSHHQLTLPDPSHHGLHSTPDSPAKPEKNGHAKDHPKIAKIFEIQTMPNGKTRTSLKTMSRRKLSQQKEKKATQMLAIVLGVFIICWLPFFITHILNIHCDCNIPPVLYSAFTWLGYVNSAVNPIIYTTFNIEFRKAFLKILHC

[4] = biological target: T2, 5-hydroxytryptamine receptor 2A; assay: Antagonist activity against human 5HT2A transfected in CHO cells by aurora beta lactamase reporter gene assay; format: functional, cell-based

N#Cc1ccccc1S(=O)(=O)N1CCC(CCc2ccc(F)cc2F)CC1
Ki [1]: 0.07 µM | Ki [2]: > 9 µM | Ki [3]: 0.0081 µM | Ki (D(2) dopamine receptor): > 1 µM

O=S(=O)(c1cccc2cccnc12)N1CCC(CCc2ccc(F)cc2F)CC1
Ki [1]: 0.184 µM | Ki [2]: > 9 µM | Ki [3]: 0.0021 µM | Ki (D(2) dopamine receptor): > 1 µM

O=S(=O)(c1ccc(F)cc1)N1CCC(O)(CCc2ccc(F)cc2F)CC1
Ki [1]: > 4 µM | Ki [2]: > 9 µM | Ki [3]: 0.19 µM | Ki (D(2) dopamine receptor): > 1 µM

O=S(=O)(c1cccc2ccccc12)N1CCC(CCc2ccc(F)cc2F)CC1
Ki [1]: 0.096 µM | Ki [2]: > 9 µM | Ki [3]: 0.0017 µM | Ki (D(2) dopamine receptor): > 1 µM

O=S(=O)(c1ccc(F)cc1)N1CC=C(CCc2ccc(F)cc2F)CC1
Ki [1]: 0.449 µM | Ki [2]: > 9 µM | Ki [3]: 0.022 µM | Ki (D(2) dopamine receptor): > 1 µM

O=S(=O)(c1ccc(F)cc1)N1CCN(CCc2ccc(F)cc2F)CC1
Ki [1]: 3.78 µM | Ki [2]: 4.87 µM | Ki [3]: 0.0044 µM | Ki (D(2) dopamine receptor): > 1 µM

O=S(=O)(c1ccc(F)cc1)N1CCC(F)(CCc2ccc(F)cc2F)CC1
Ki [1]: 0.806 µM | Ki [2]: > 9 µM | Ki [3]: 0.024 µM | Ki (D(2) dopamine receptor): > 1 µM

O=S(=O)(c1ccc(F)cc1)N1CCC(CCc2ccc(F)cc2F)CC1
Ki [1]: 2.03 µM | Ki [2]: > 9 µM | Ki [3]: 0.052 µM | Ki (D(2) dopamine receptor): > 1 µM

O=S(=O)(c1ccccc1F)N1CCC(CCc2ccc(F)cc2F)CC1
Ki [1]: 0.239 µM | Ki [2]: > 9 µM | Ki [3]: 0.0099 µM | Ki (D(2) dopamine receptor): > 1 µM

O=C(c1ccccc1F)N1CCC(CCc2ccc(F)cc2F)CC1
Ki [1]: 0.11 µM | Ki [2]: > 9 µM | Ki (D(2) dopamine receptor): > 1 µM

N#Cc1c[nH]c2c(C(=O)N3CCN(CCc4ccc(F)cc4F)CC3)cccc12
Ki [1]: 0.557 µM | Ki [2]: 1.27 µM | Ki [3]: 0.00087 µM | Ki (D(2) dopamine receptor): > 1 µM

O=C(c1cccc2cccnc12)N1CCC(CCc2ccc(F)cc2F)CC1
Ki [1]: 0.028 µM | Ki [2]: > 9 µM | Ki [3]: 0.0029 µM | Ki (D(2) dopamine receptor): > 1 µM

O=S(=O)(c1cccc(F)c1)N1CCC(CCc2ccc(F)cc2F)CC1
Ki [1]: 0.997 µM | Ki [2]: > 9 µM | IC50 [4]: 0.319 µM | Ki [3]: 0.014 µM | Ki (D(2) dopamine receptor): > 1 µM

O=S(=O)(c1ccccc1Cl)N1CCC(CCc2ccc(F)cc2F)CC1
Ki [1]: 0.404 µM | Ki [2]: > 9 µM | Ki [3]: 0.0061 µM | Ki (D(2) dopamine receptor): > 1 µM
